# From ChEMBL document CHEMBL6134921, “Novel Tetrahydrobenzo[b]pyrazolo[3,4-e][1,4]diazepine Compounds as Oxytocin Receptor Agonists for Treating Autism Spectrum Disorders” (ACS Med Chem Lett, 2025)
# What was measured:
# [1] = target: T1, Oxytocin receptor (Homo sapiens, UniProt P30559); assay: Agonist activity at oxytocin receptor (unknown origin) expressed in CHO cells by IP-1 accumulation assay; format: functional, cell-based
# T1 sequence (P30559 whole entry): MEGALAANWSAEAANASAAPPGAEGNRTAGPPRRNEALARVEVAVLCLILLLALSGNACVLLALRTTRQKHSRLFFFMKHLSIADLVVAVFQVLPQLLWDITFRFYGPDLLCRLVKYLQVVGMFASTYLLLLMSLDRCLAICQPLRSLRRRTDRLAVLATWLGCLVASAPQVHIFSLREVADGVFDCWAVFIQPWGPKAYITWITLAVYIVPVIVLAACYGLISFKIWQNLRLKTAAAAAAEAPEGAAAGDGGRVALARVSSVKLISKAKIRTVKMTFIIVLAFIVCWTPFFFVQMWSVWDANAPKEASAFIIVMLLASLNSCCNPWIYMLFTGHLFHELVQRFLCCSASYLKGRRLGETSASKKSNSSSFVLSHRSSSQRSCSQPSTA
# [2] = target: Vasopressin V1a receptor (Homo sapiens, UniProt P37288); assay: Antagonist activity at V1A receptor (unknown origin) by calcium signal assay; format: functional
# Sequence of Vasopressin V1a receptor (P37288 whole entry): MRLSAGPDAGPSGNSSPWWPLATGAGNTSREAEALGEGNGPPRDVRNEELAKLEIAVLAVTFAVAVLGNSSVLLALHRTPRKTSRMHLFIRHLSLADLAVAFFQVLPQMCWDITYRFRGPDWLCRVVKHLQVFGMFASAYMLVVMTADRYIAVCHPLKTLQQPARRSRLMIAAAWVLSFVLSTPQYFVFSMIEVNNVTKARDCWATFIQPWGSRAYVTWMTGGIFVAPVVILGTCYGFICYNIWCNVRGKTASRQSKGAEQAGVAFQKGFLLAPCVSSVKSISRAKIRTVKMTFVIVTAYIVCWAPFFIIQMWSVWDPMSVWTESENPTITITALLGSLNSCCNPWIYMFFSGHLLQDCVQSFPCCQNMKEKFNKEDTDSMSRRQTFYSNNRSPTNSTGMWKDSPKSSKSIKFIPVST
# [3] = Selectivity ratio, IC50 for antagonist activity at V1A receptor (unknown origin) to EC50 for agonist activity at oxytocin receptor (unknown origin) expressed in CHO cells; format: cell-based
Compound,EC50 [1],IC50 [2],Ratio IC50/EC50 [3]
Cc1cc(C(=O)N2Cc3cnn(C)c3Nc3ccccc32)ccc1CNC(=O)N1C[C@H](n2cc(CF)nn2)C[C@H]1C(=S)N(C)C,0.31 nM,,
Cc1cc(C(=O)N2Cc3cnn(C)c3Nc3ccccc32)ccc1CNC(=O)N1C[C@H](n2cc(CC3NC(=O)NC3=O)nn2)C[C@H]1C(=S)N(C)C (some centres undefined),0.26 nM,393 nM,1510
Cc1cc(C(=O)N2Cc3cnn(C)c3Nc3ccccc32)ccc1CNC(=O)N1C[C@H](n2cc(CCc3nnn[nH]3)nn2)C[C@H]1C(=S)N(C)C,1.95 nM,> 10000 nM,> 5000
Cc1cc(C(=O)N2Cc3cnn(C)c3Nc3ccccc32)ccc1CNC(=O)N1C[C@@H](n2cc(CO)nn2)C[C@H]1C(=S)N(C)C,0.14 nM,700 nM,5000
Cc1cc(C(=O)N2Cc3cnn(C)c3Nc3ccccc32)ccc1CNC(=O)N1C[C@H](n2cc(CO)nn2)C[C@H]1C(=S)N(C)C,0.15 nM,966 nM,6450
Cc1cc(C(=O)N2Cc3cnn(C)c3Nc3ccccc32)ccc1CNC(=O)N1C[C@H](n2cc(COCCF)nn2)C[C@H]1C(=S)N(C)C,0.55 nM,,
